Values quoted from earlier work as cited in patent publication US10314848B2, “Use of testosterone and a 5-HT1A agonist in the treatment of sexual dysfunction” (EB IP LYBRIDOS B.V., priority 2006, dated 2019).

| Time to maximum plasma concentration (in vivo) [h] | half-life (single doses) [h] | Time to peak plasma concentration after administration (in vivo) | Structure (SMILES) |
| --- | --- | --- | --- |
| 1 to 2 | 5.5 | – | O=C(NCCN1CCN(c2cccc3c2OC[C@H](CO)O3)CC1)c1ccc(F)cc1 [flesinoxan] |
| – | – | about 1 hour | CCCc1nc(C)c2c(=O)nc(-c3cc(S(=O)(=O)N4CCN(CC)CC4)ccc3OCC)[nH]n12.Cl [vardenafil, piperazine, 1-[[3-(1,4-dihydro-5-methyl-4-oxo-7-propylimidazo[5,1-f][1,2,4]triazin-2-yl)-4-ethoxyphenyl]sulfonyl]-4-ethyl-, monohydrochloride] |
